In patent US8227422B2, “Peptides and compounds that bind to a receptor” (Glaxosmithkline LLC, priority 1996, dated 2012) one finds EC50 and IC50 data, which are given here for nine molecules.

Like-named read-outs stand apart in the source and are kept apart here. Where a SMILES comes first, the peptide text is derived from it.

The target of test [1] is T1, human TPO-R (transfected Ba/F3 cells) (Homo sapiens, UniProt P40238).
T1 construct: Murine IL-3 dependent Ba/F3 cells were transfected with full length human TPO-R; expressed in transfected cells; host or cells: murine Ba/F3 cells
T1 sequence (P40238 26-635): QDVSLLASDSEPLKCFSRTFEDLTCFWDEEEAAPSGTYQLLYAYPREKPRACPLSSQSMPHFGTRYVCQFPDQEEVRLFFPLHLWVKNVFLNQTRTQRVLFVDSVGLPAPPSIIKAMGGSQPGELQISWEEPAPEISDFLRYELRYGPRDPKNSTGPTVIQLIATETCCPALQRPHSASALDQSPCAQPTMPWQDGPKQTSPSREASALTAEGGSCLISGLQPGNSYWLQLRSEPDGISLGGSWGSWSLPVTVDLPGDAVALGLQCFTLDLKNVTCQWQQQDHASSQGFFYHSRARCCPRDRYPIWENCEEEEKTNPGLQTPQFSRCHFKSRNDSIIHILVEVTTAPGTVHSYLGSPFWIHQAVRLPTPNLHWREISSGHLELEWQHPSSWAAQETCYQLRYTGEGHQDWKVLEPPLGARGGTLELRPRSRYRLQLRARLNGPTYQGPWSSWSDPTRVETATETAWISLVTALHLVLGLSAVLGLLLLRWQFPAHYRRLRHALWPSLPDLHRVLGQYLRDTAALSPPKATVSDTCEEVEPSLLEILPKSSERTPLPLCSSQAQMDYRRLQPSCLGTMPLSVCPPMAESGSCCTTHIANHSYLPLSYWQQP
Kind of test: Thrombopoietin dependent cell proliferation assay (MTT), TPO-R transfected Ba/F3 cells. It is filed as cell-based.
Experimental: Bioactivity of the peptides can be measured using a thrombopoietin dependent cell proliferation assay. Murine IL-3 dependent Ba/F3 cells were transfected with full length human TPO-R. In the absence of IL-3 (WEHI-3 conditioned media), these cells are dependent on TPO for proliferation.
The cells were grown in complete RPMI-10 media, containing 10% WEHI-3 conditioned media, then washed twice in PBS, resuspended in media which lacked WEHI-3 conditioned media, and added to wells containing dilutions of peptide or TPO at 2×10^4 cells/well. The cells were incubated for 48 hours at 37° C. in a humidified 5% CO2 atmosphere and metabolic activity was assayed by the reduction of MTT to formazan, with absorbance at 570 nm measured on an ELISA plate reader.

For another test, the target named is T2, TPO-R (Homo sapiens, UniProt P40238).
T2 construct: made in house
T2 sequence (P40238 26-491 limits assumed): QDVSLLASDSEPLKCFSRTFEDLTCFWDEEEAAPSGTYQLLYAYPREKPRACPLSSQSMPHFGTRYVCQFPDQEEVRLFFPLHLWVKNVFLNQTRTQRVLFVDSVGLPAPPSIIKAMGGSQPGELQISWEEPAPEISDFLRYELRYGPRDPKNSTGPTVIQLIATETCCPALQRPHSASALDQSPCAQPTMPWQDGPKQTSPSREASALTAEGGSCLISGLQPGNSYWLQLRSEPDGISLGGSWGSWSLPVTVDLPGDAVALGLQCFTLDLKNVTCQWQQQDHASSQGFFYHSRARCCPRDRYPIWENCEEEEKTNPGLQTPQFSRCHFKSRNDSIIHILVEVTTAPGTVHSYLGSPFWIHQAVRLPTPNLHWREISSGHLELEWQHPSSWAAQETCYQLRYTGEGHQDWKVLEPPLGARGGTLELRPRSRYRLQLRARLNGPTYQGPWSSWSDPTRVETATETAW
Kind of test: Competition binding assay (equilibrium binding ELISA, MBP-TPO156 tracer) on immobilized TPO-R. How it is done:
A variety of methods can be used to evaluate IC50 values. For example, an equilibrium binding ELISA assay, using either MBP-TPO or lacI-peptide tracer, was used to determine whether the peptides inhibit the binding of TPO to the extracellular domain of the TPO receptor. Typically, the IC50 value were determined using the free peptide. The IC50 value can be determined using the free peptide, which optionally can be C-terminally amidated, or can be prepared as an ester or other carboxy amide.
Binding affinities of chemically synthesized peptides for TPO-R were measured in a competition binding assay. The wells of a microtiter plate were coated with 1 mg streptavidin, blocked with PBS/1% BSA, followed by 50 ng of biotinylated anti-receptor immobilizing antibody (Ab179). The wells were then treated with a 1:10 dilution of soluble TPO-R harvest. Various concentrations of peptide or peptide mimetic were mixed with a constant amount of a truncated form of TPO consisting of residues 1-156 fused to the C-terminus of maltose binding protein (MBP-TPO156). The peptide MBP-TPO156 mixtures were added to the TPO-R coated wells, incubated for 2 hours at 4° C. and then washed with PBS. The amount of MBP-TPO156 that was bound at equilibrium was measured by adding a rabbit anti-sera directed against MBP, followed by alkaline phosphatase conjugated goat anti-rabbit IgG. The amount of alkaline phosphatase in each well was then determined using standard methods.
The assay is conducted over a range of peptide concentrations and the results are graphed such that the y axis represents the amount of bound MBP-TPO156 and the x axis represents the concentration of peptide or peptide mimetic.
(In general: An ELISA detects its analyte on a solid surface through an enzyme-linked reagent.)

The mark [2] stands for this setting: Table 5, substitutions in cyclized compound, read-out: EC50 (nM) Cell Prolif.

With `CC[C@H](C)[C@H](NC(C)=O)C(=O)N[C@@H](CCC(=O)O)C(=O)NCC(=O)N1CCC[C@H]1C(=O)N[C@H](C(=O)N[C@@H](CC(C)C)C(=O)N[C@@H](CCCNC(=N)N)C(=O)N[C@@H](CCC(N)=O)C(=O)N[C@@H](Cc1c[nH]c2ccccc12)C(=O)N[C@@H](CC(C)C)C(=O)N[C@@H](C)C(=O)N[C@@H](C)C(=O)N[C@@H](CCCNC(=N)N)C(=O)N[C@@H](C)C(=O)NCCCC[C@H](NC(=O)CCNC(=O)[C@H](C)NC(=O)[C@H](CCCNC(=N)N)NC(=O)[C@H](C)NC(=O)[C@H](C)NC(=O)[C@H](CC(C)C)NC(=O)[C@H](Cc1c[nH]c2ccccc12)NC(=O)[C@H](CCC(N)=O)NC(=O)[C@H](CCCNC(=N)N)NC(=O)[C@H](CC(C)C)NC(=O)[C@@H](NC(=O)[C@@H]1CCCN1C(=O)CNC(=O)[C@H](CCC(=O)O)NC(=O)[C@@H](NC(C)=O)[C@@H](C)CC)[C@@H](C)O)C(N)=O)[C@@H](C)O`, the 50% effective concentration (EC50) in test [1] (Table 10, truncations of the dimer, read-out: EC50 (nM) Cell Prolif.) was less than 500 nM.
With `CC[C@H](C)[C@@H]1NC(=O)[C@@H](N)CSSC[C@@H](C(N)=O)NC(=O)[C@H](C)NC(=O)[C@H](CCCNC(=N)N)NC(=O)[C@H](C)NC(=O)[C@H](C)NC(=O)[C@H](CC(C)C)NC(=O)[C@H](Cc2c[nH]c3ccccc23)NC(=O)[C@H](CCC(N)=O)NC(=O)[C@H](CCCNC(=N)N)NC(=O)[C@H](CC(C)C)NC(=O)[C@H]([C@@H](C)O)NC(=O)[C@@H]2CCCN2C(=O)CNC(=O)[C@H](CCC(=O)O)NC1=O` (HELM PEPTIDE1{C.I.E.G.P.T.L.R.Q.W.L.A.A.R.A.C.[am]}$PEPTIDE1,PEPTIDE1,1:R3-16:R3$$$V2.0), at TPO-R (Table 9, read-out: IC50), the 50% inhibitory concentration (IC50) was not above 500 nM.
Consider `CC(C)C[C@H](NC(=O)[C@@H](NC(=O)[C@@H]1CCCN1C(=O)CNC(=O)[C@@H](NC(=O)[C@@H](N)Cc1c[nH]cn1)C(C)C)[C@@H](C)O)C(=O)N[C@@H](CCCNC(=N)N)C(=O)N[C@@H](CO)C(=O)NCC(=O)N[C@@H](CSSC[C@H](NC(=O)CNC(=O)[C@H](CO)NC(=O)[C@H](CCCNC(=N)N)NC(=O)[C@H](CC(C)C)NC(=O)[C@@H](NC(=O)[C@@H]1CCCN1C(=O)CNC(=O)[C@@H](NC(=O)[C@@H](N)Cc1c[nH]cn1)C(C)C)[C@@H](C)O)C(N)=O)C(N)=O` (HELM PEPTIDE1{H.V.G.P.T.L.R.S.G.C.[am]}|PEPTIDE2{H.V.G.P.T.L.R.S.G.C.[am]}$PEPTIDE1,PEPTIDE2,10:R3-10:R3$$$V2.0), for which, on TPO-R (Table 7, dimer compounds, read-out: IC50), the concentration for half-maximal inhibition (IC50) is not above 200000 nM. In addition, in test [1] (Table 7, dimer compounds, read-out: EC50 (nM) Prolif.), the EC50 is less than 200000 nM.
In the case of `CC[C@H](C)[C@@H]1NC(=O)[C@H](Cc2c[nH]c3ccccc23)NC(=O)[C@H](CCC(=O)O)NC(=O)[C@H](CCCNC(=N)N)NC(=O)[C@H](CC(C)C)NC(=O)[C@H]([C@@H](C)O)NC(=O)[C@@H]2CCCN2C(=O)CNC(=O)[C@H](CC(=O)O)NC(=O)[C@H](C)NC(=O)[C@@H](N)CSSC[C@@H](C(N)=O)NC(=O)[C@H](Cc2cccnc2)NC(=O)[C@H](CO)NC1=O` [F-(Pyridylala)] (HELM PEPTIDE1{C.A.D.G.P.T.L.R.E.W.I.S.[O=C([C@H](Cc1cccnc1)N[*:1])[*:2]].C.[am]}$PEPTIDE1,PEPTIDE1,1:R3-14:R3$$$V2.0; N-terminus and C-terminus assumed), the IC50 on TPO-R (Table 5, read-out: IC50) was not above 500 nM. Moreover, the EC50 in test [1] (setting [2]) was less than 500 nM.
As to `CC[C@H](C)[C@@H]1NC(=O)[C@H](Cc2c[nH]c3ccccc23)NC(=O)[C@H](CCC(=O)O)NC(=O)[C@H](CCCNC(=N)N)NC(=O)[C@H](CC(C)C)NC(=O)[C@H]([C@@H](C)O)NC(=O)[C@@H]2CCCN2C(=O)CNC(=O)[C@H](CC(=O)O)NC(=O)[C@H](C)NC(=O)[C@@H](NC(=O)CNC(=O)CN)CSSC[C@@H](C(=O)NCC(=O)NCC(=O)O)NC(=O)[C@H](Cc2ccccc2)NC(=O)[C@H](CO)NC1=O` [G G C A D G P T L R E W I S F C G G] (HELM PEPTIDE1{G.G.C.A.D.G.P.T.L.R.E.W.I.S.F.C.G.G}$PEPTIDE1,PEPTIDE1,3:R3-16:R3$$$V2.0; N-terminus and C-terminus assumed; bridges inferred), the 50% inhibitory concentration (IC50) at TPO-R (Table 3, read-out: Affinity (IC50)) was not above 500 nM.
In the case of `CC(C)C[C@@H]1NC(=O)[C@H](Cc2c[nH]c3ccccc23)NC(=O)[C@H](CCC(=O)O)NC(=O)[C@H](CCCNC(=N)N)NC(=O)[C@H](CC(C)C)NC(=O)[C@H]([C@@H](C)O)NC(=O)[C@@H](NC(=O)CNC(=O)CN)CSSC[C@@H](C(=O)NCC(=O)NCC(=O)O)NC(=O)[C@H](Cc2ccccc2)NC(=O)CNC(=O)CNC(=O)[C@H](Cc2c[nH]cn2)NC1=O` [G G C T L R E W L H G G F C G G] (HELM PEPTIDE1{G.G.C.T.L.R.E.W.L.H.G.G.F.C.G.G}$PEPTIDE1,PEPTIDE1,3:R3-14:R3$$$V2.0; N-terminus and C-terminus assumed; bridges inferred), at TPO-R (read-out: IC50 value), the 50% inhibitory concentration (IC50) was not above 500 nM.
As to `CC[C@H](C)[C@@H]1NC(=O)[C@H](Cc2c[nH]c3ccccc23)NC(=O)[C@H](CCC(=O)O)NC(=O)[C@H](CCCNC(=N)N)NC(=O)[C@H](CC(C)C)NC(=O)[C@H]([C@@H](C)O)NC(=O)[C@@H]2CCCN2C(=O)CNC(=O)[C@H](CC(=O)O)NC(=O)[C@H](C)NC(=O)CSC[C@@H](C(N)=O)NC(=O)CCCCNC1=O` [S,F-Ava(thioether)] (HELM PEPTIDE1{[O=C(C[*:3])[*:2]].A.D.G.P.T.L.R.E.W.I.[O=C(CCCCN[*:1])[*:2]].C.[am]}$PEPTIDE1,PEPTIDE1,1:R3-13:R3$$$V2.0; N-terminus and C-terminus assumed), the IC50 on TPO-R (Table 5, read-out: IC50) is not above 500 nM. The concentration for a half-maximal effect (EC50) in test [1] (setting [2]) is less than 200000 nM.
The matching figures for `CC[C@H](C)[C@@H]1NC(=O)[C@H](Cc2c[nH]c3ccccc23)NC(=O)[C@H](CCC(=O)O)NC(=O)[C@H](CCCNC(=N)N)NC(=O)[C@H](CC(C)C)NC(=O)[C@H]([C@@H](C)O)NC(=O)[C@@H]2CCCN2C(=O)CNC(=O)[C@H](CC(=O)O)NC(=O)[C@H](C)NC(=O)[C@@H](N)CSSC[C@@H](C(N)=O)NC(=O)CCCCNC1=O` [S,F-Ava] (HELM PEPTIDE1{C.A.D.G.P.T.L.R.E.W.I.[O=C(CCCCN[*:1])[*:2]].C.[am]}$PEPTIDE1,PEPTIDE1,1:R3-13:R3$$$V2.0; N-terminus and C-terminus assumed): not above 500 nM and less than 200000 nM.
In the case of `CC[C@H](C)[C@@H]1NC(=O)[C@H](Cc2c[nH]c3ccccc23)NC(=O)[C@H](CCC(=O)O)NC(=O)[C@H](CCCNC(=N)N)NC(=O)[C@H](CC(C)C)NC(=O)[C@H]([C@@H](C)O)NC(=O)[C@@H]2CCCN2C(=O)CNC(=O)[C@H](CC(=O)O)NC(=O)[C@H](C)NC(=O)[C@@H](N)CSSC[C@@H](C(N)=O)NC(=O)[C@H](Cc2ccccc2)NC(=O)[C@H](C)N(C)C1=O` [S-(N-Me-Ala)] (HELM PEPTIDE1{C.A.D.G.P.T.L.R.E.W.I.[meA].F.C.[am]}$PEPTIDE1,PEPTIDE1,1:R3-14:R3$$$V2.0; N-terminus and C-terminus assumed), the IC50 at TPO-R (Table 5, read-out: IC50) is not above 200000 nM. Besides, the EC50 in test [1] (setting [2]) was less than 200000 nM.

What is called EC50 is the concentration that produces a half-maximal response. Broadly, the IC50 is the point on the concentration scale where inhibition reaches its midpoint.
